Results taken from publication PMC8111499, “GW117: A novel serotonin (5‐HT2C) receptor antagonist and melatonin (MT1/MT2) receptor agonist with potential antidepressant‐like activity in rodents” (CNS Neuroscience & Therapeutics, 2021).

Key:
CUS rats = experiment: Novelty‐suppressed feeding test in the CUS model; format: in vivo; conditions: chronic, 5, 10, 20 and 40 mg/kg, vs. vehicle‐stressed rats
Protocol: In order to further examine the antidepressant effects of GW117, chronic unpredictable stress (CUS) model was utilized; the methods were as described before. ^29 , ^31 After 1 week of training, rats underwent sucrose training of 48 h. After training, a sucrose baseline test was performed. […] Gastric gavage was given 1 h before the stress (08:00–09:00). Except for the non‐stressed group, all rats were stimulated by a series of stressors. stress methods included the following: fast on food and water (24 h), moisture cage (150 g sawdust bedding in 200 ml water), overnight illumination, low‐intensity strobe illumination (100 flashes/min), forced swimming (5 min at 10℃), white noise (110 dB), tail pinch (1 cm from tail root, 6 min), 45℃ cage tilt, and restraint (1–2 h). Stressors need to be used continuously and randomly. Non‐stressed rats received free food and water, but were required to fast for 14 h before sucrose preference test. After 4 weeks of stress, the sucrose preference test (SPT) (on day 25), open field test (OFT) (on day 28), and novelty‐suppressed feeding (NSF) test (on day 29) were carried out. […]

MT2 receptor [1] = biological target: T1, MT2 receptor (Homo sapiens, UniProt P49286); experiment: [35S]‐GTPγS binding assay, MT2; format: biochemical
T1 construct: purchased Perkin‐Elmer ES‐621
T1 sequence (P49286 1-362): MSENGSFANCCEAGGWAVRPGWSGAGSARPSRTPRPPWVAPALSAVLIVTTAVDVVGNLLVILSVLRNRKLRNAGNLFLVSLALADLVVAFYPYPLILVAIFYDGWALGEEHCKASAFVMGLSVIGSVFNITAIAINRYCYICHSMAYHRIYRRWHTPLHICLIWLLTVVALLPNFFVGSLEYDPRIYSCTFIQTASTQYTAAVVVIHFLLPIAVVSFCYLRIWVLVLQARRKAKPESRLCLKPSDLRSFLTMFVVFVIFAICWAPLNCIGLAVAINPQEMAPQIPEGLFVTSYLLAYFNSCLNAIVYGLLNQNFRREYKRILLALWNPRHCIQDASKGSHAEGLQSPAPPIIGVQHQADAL
Protocol: This experiment was mentioned earlier. ^27 In short, HEK293 cell membrane stably expressing human 5‐HT2C receptors or rat hippocampal tissue membrane or MT1/MT2 receptors was re‐suspended in buffer (50 mmol/L Tris, 100 mmol/L NaCl, 5 mmol/L MgCl2·6H2O, 0.1 mmol/L EDTA‐Na2·6H2O, 0.2 mmol/L EGTA, pH 7.4) and incubated with the test compound (100 μM GDP, 0.2 nM [^35S]‐GTP, or [^3H]PIP) for 60 min at 28℃. At the end of the experiment, Whatman GF/C filters pre‐soaked with distilled water were used for rapid filtration followed by washing with 5 ml of ice‐cold Tris buffer. Determination of non‐specific binding in the presence of GTPγS and radioactivity was measured by liquid scintillation counting. Calculation of the concentration produces a half‐maximal effect (EC50) and the maximal increase above the baseline value.

rats [2] = experiment: Forced swimming test in rats; format: in vivo, Sprague Dawley (SD) rats; conditions: single dose p.o., 10, 20, or 40 mg/kg, vs. vehicle
Protocol: The forced swimming test (FST) was conducted as described earlier. ^30 Eighty naive rats were randomized into eight treatment groups (n = 9‐12/group). All rats received a single drug administration (p.o.). The procedure consisted of two sessions, to be specific, a pre‐test session and a test session. A cylindrical container (diameter, 20 cm; height, 40 cm; including 30 cm of water and kept at 25℃) was used. During the pre‐test phase, rats were required to perform forced swimming for 15 min. The test session was performed 24 h later, put the rats in the same cylindrical container for 5 min and immobility duration over 5 min recorded. […] Rats were considered immobile when they entered a floating posture, specifically, immobile, passive, and with their heads above water.

MT2 receptor [3] = biological target: T1, MT2 receptor; experiment: MT2 receptor binding assay ([3H]‐melatonin competition); conditions: mean ± SEM, three independent experiments
Protocol: The stably transfected 5‐HT2C receptor HEK293 cell line was prepared using a nucleus‐cytoplasm‐membrane preparation kit (Applagin Technologies Inc.). Briefly, cells were harvested at 4°C, 110 00 × g and centrifugation for 5 min. Homogenize pellets in the assay buffer (50 mM Tris‐HCl buffer containing 120 mM NaCl and 5 mM KCl, pH 7.4) and then centrifuged twice at 4°C, 36,000 × g for 15 min. Finally, pellets were re‐suspended in assay buffer and stored it at −80°C until it is used for in vitro experiments.
Receptor membrane protein, MT1 or MT2 (10 μl), was added to all pipes. Non‐specific binding was determined by the presence of unlabeled 10 µM melatonin and pre‐reacted for 30 min. In test tubes, 30 μl of test drugs (MT1: concentration, 10^−4–10^−10 M; MT2: concentration, 10^−4–10^−11 M) was added. Additionally, 40 μl [^3H]‐melatonin was added to all tubes. The volume in all reaction tubes was made up to 300 μl with Tris‐HCl buffer (50 mM, pH 7.4). Reactions were performed at 25°C for 1 h. The mixture was then spotted onto a type 49 glass fiber filter paper, suction filtered under vacuum, rinsed three times with 2 ml ice‐cold Tris‐HCl buffer (50 mM, pH 7.4), and dried by suction. […] Finally, 1 ml of scintillation fluid was added and then the radioactive intensity measured by liquid scintillation counting.

rats [4] = experiment: Locomotor activity in rats; format: in vivo; conditions: for Locomotor activity, Crossing number / Locomotor activity, Rearing number: Rats, mean ± S.E.M.
Protocol: In order to confirm whether GW117 has an antidepressant activity, we used spontaneous activities in mice and rats to determine whether GW117 affects the central system. 64 ICR mice were randomly allocation to five therapy groups ([…]): control group, 5 mg/kg GW117, 10 mg/kg GW117, 20 mg/kg GW117, and 40 mg/kg GW117. All rats and mice received one administration (p.o.). After sixty minutes of gavage administration, each mouse or rat was located in the corner of an open field chamber (36 × 29 × 23 cm for mice; 76 × 76 × 46 cm for rats) to adapt to 5 min. The numbers of crossings and rearings were recorded during the subsequent 5 min.

[2H]C([2H])([2H])Oc1cc2c(CCNC(C)=O)cccc2cc1Cl [GW117]
latency to begin eating (CUS rats): significantly reduced the latency to begin eating | character of effect on MT2 receptor (MT2 receptor [1]; [35S]‐GTPγS binding): full agonist | Emax (MT2 receptor [1]; [35S]‐GTPγS binding, read-out: maximal increase over basal binding (% Emax), MT2 receptor): 103 ± 4.56% | EC50 (MT2 receptor [1]; read-out: EC50 of stimulation of specific [35S]‐GTPγS binding, MT2 receptor): 1.54 nM | immobility time in FST (rats [2]): markedly reduced the immobility time | Ki (MT2 receptor [3]): 54 ± 7.31 nM | Locomotor activity, Crossing number (rats [4]; 5 mg/kg p.o.): 70.3 ± 5.1 | Locomotor activity, Rearing number (rats [4]; 5 mg/kg p.o.): 14.2 ± 1.4 | Locomotor activity, Crossing number (rats [4]; 10 mg/kg p.o.): 71.3 ± 6.8 | Locomotor activity, Rearing number (rats [4]; 10 mg/kg p.o.): 14.9 ± 1.5 | Locomotor activity, Crossing number (rats [4]; 20 mg/kg p.o.): 60.9 ± 4.4 | Locomotor activity, Rearing number (rats [4]; 20 mg/kg p.o.): 13.8 ± 1.3 | Locomotor activity, Crossing number (rats [4]; 40 mg/kg p.o.): 63.5 ± 4.6 | Locomotor activity, Rearing number (rats [4]; 40 mg/kg p.o.): 12.8 ± 1.3 | effect on number of crossings and rearings in the spontaneous activity test (rats [4]; rats, 5, 10, 20, or 40 mg/kg by gavage): had no effect
